These are literature values, as cited in paper PMC4486055 (Cancer chemotherapy and pharmacology, 2014).

Each structure is given as a SMILES string.

The conditions of this data set: clinical development; cited from earlier work.

On to `CN[C@@H]1C[C@H]2O[C@@](C)([C@@H]1OC)n1c3ccccc3c3c4c(c5c6ccccc6n2c5c31)C(=O)N[C@H]4O` [UCN-01, 7-hydroxyl-staurosporine], for which the Dose-limiting toxicity entry is “prominent dose-limiting hyperglycemia”.
